Measured values reported in PMC5679103 (Journal of natural products, 2017).

What was measured:
P. falciparum Dd2 strain = assay: Antiplasmodial 72 h growth assay; type: cell-based, Plasmodium falciparum; conditions: relative to trichospirolide B (2)
Stability on storage = type: physicochemical; conditions: storage at −23 °C

Structure (SMILES)	Fold higher antiplasmodial potency than trichospirolide B (P. falciparum Dd2 strain) [fold]	Stability on storage (Stability on storage)
C=C(C)C(=O)O[C@H]1C/C(C)=C\C(=O)/C=C(C)/C=C2/OC(=O)C(COC(C)=O)=C21 [Compound 1, 1(10)Z,3E,5E,7(12)Z-(8S)-13-acetoxy-8-methacryloyloxy-2-oxogermacra-1,3,5,7-tetraen-6,12-olide]	25	–
C=C(C)C(=O)O[C@H]1C/C(C)=C\C(=O)C[C@@]2(C)O[C@H]2[C@H]2OC(=O)C(COC(C)=O)=C12 [Compound 3, 1(10)Z,7(11)Z-(4R,5S,6S,8S)-13-acetoxy-4,5-epoxy-8-methacryloyloxy-2-oxogermacra-1,7-dien-6,12-olide]	3	–
C=C(C)C(=O)O[C@@H]1C/C(C)=C\[C@@]2(O)C=C(C)[C@H](O2)[C@H]2OC(=O)C(COC(C)=O)=C12 [Compound 4, 1(10)Z,3Z,7(11)Z-(2S,5S,6S,8R)-13-acetoxy-2,5-epoxy-2-hydroxy-8-O-methacryloyloxygermacra-1(10),3,7(11)-trien-6,12-olide]	–	moderately unstable
